According to PubChem BioAssay (NCI):
“And” between values parts separate entries of the source, which are not always exact repeats. Equal entries are not always repeated.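 Following 48 hours of exposure in 96-well plates, responses at five concentrations were used to interpolate endpoints linearly. Abbreviation: GI50, concentration required for 50% inhibition of growth. Definition used: TGI = concentration required for complete inhibition of growth.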

Tests used:
Assay in all cases: growth of human tumour cells (NCI), 48 h
[1] = tested on: NCI-H460 lung
[2] = tested on: OVCAR-5 ovarian
[3] = tested on: PC-3 prostate
[4] = tested on: NCI-H226 lung
[5] = tested on: SF-295 CNS
[6] = tested on: KM12 colon
[7] = tested on: HCC-2998 colon
[8] = tested on: SW-620 colon
[9] = tested on: A498 renal
[10] = tested on: NCI/ADR-RES ovarian

Row | SMILES | GI50 [1] [nM] | TGI [1] [µM] | GI50 [2] [nM] | TGI [2] [µM] | GI50 [3] [nM] | TGI [3] [µM] | GI50 [4] [nM] | TGI [4] | GI50 [5] [nM] | TGI [5] | GI50 [6] [nM] | TGI [6] [µM] | GI50 [7] [nM] | TGI [7] [µM] | GI50 [8] [nM] | TGI [8] [µM] | GI50 [9] [nM] | TGI [9] | GI50 [10] [nM] | TGI [10] [µM]
1 | COc1ccc(SC2c3cc(OC)c(OC)cc3Oc3nc(N)c(C#N)c(N)c32)cc1 (stereo unspecified) | 1660 | 4.38 | 1750 | 3.39 | 1160 | 2.49 | 1370 | 2.68 µM | 1600 | 2.96 µM | 1530 | 3.05 | 1720 | 3.12 | 1240 | 3.2 | 1420 | 2.85 µM | – | –
2 | CCN(CC)CCN1C(=O)c2c(c(C)c3c(oc4cc(O)ccc43)c2C)C1=O | 1750 | 3.37 | 1660 | 3.04 | 1500 | 3.22 | 2060 | 4.38 µM | 1560 | 2.98 µM | 1820 | 3.74 | 1620 | 3.03 | – | – | 1690 | 3.12 µM | 1660 | 3.26
3 | Cc1ccc2c(c1)C(=O)c1c-2n(CCCN)c(=O)c2cc([N+](=O)[O-])ccc12 | 34.9 | 0.629 | 873 | 1.58 | 437 | 1.17 | 540 | 1.33 µM | 120 | 0.663 µM | 433 | 1.23 | 531 | 1.17 | – | – | 5680 | 17.1 µM | 594 | 1.45
4 | Cc1ccc2nc3c(C)c(Cl)c(=O)cc-3sc2c1 | – | 97.4 | – | > 95.8 | – | > 100 | – | 64 µM | – | 81.3 µM | – | 74.1 | – | > 100 | – | > 100 | – | > 100 µM | – | –
5 | CCOC(=O)C1N(S(=O)(=O)c2ccc(C)cc2)CCC12c1ccccc1N(C(C)=O)C2C(/C=C/C(=O)OC)=C/C(=O)OC (stereo unspecified) | – | > 100 | – | > 100 | – | – | – | > 100 µM | – | > 100 µM | – | > 100 | – | > 100 | – | > 100 | – | > 100 µM | – | –
6 | Cn1c2ccccc2c(=Nc2ccccc2)c2c3ccccc3[nH]c21 | 410 | 1.49 | 7600 | 59.9 | 1690 | 6.2 | 615 | 2 µM | 1030 | 2.22 µM | – | – | 3230 | 46.4 | 1090 | 2.9 | 1340 | 3.08 µM | 6750 | 61.2
7 | Cc1cc(C)cc(-n2c3nc(=O)n(C)c(=O)c-3nc3ccccc32)c1 | – | 94.4 | – | 93.1 | – | – | – | > 100 µM | – | > 100 µM | – | > 100 | – | 49.9 | – | 40.7 | – | > 100 µM | – | –
8 | Oc1ccc2oc3ncc(Cl)c(-c4ccccc4)c3c2c1 | > 100000 | > 100 | > 100000 | > 100 | > 100000 | > 100 | > 100000 | > 100 µM | > 100000 | > 100 µM | > 100000 | > 100 | – | – | > 100000 | > 100 | > 100000 | > 100 µM | > 100000 | > 100
9 | O=C(O)c1c(O)c2cc(Br)ccc2oc1=O | – | > 100 | – | > 100 | – | > 100 | – | > 100 µM | – | > 100 µM | – | – | – | > 100 | – | > 100 | – | > 100 µM | – | > 100
10 | S=c1nc(-c2ccccc2)oc(=NC2CCCCC2)n1C1CCCCC1 | 2930 | 10.2 | 8540 | 30.3 | – | – | 17500 | 37.9 µM | 4070 | 37.4 µM | 3480 | 10.1 | 3790 | 13.7 | 3780 | 14.6 | 3610 | 13 µM | 5010 | 23.4
11 | Cn1c2c([N+](=O)[O-])[se]nc2c(=O)n1-c1ccc([N+](=O)[O-])cc1 | – | 6.77 | – | 4.44 | – | – | – | 7.91 µM | – | 11.6 µM | – | 15.7 | – | 3.62 | – | 1.48 | – | 23.7 µM | – | –
12 | C=CN1C(=O)OC(c2ccccc2)C1c1ccccc1 (stereo unspecified) | > 100000 | > 100 | – | > 100 | – | – | > 100000 | > 100 µM | – | > 100 µM | > 100000 | > 100 | > 100000 | > 100 | – | > 100 | > 100000 | > 100 µM | – | –
13 | O=c1[nH]cc(CS(=O)(=O)Cc2c[nH]c(=O)[nH]c2=O)c(=O)[nH]1 | – | > 100 | – | > 100 | – | > 100 | – | > 100 µM | – | > 100 µM | – | > 100 | – | – | – | > 100 | – | > 100 µM | – | > 100
14 | C=C(CN1CCN(c2ccccc2OC)CC1)c1ccc(C(=O)Nc2ccccc2N)cc1 | 17500 | > 50 | 7560 | 22.8 | 9640 | > 50 | – | – | 4110 | 15.4 µM | 3320 | 11.6 | 270 | 0.452 | 2100 | > 50 | – | – | 143 | 1.56
15 | COC(=O)C1=C(OC)c2cc3c(cc2C(c2cc(OC)c(OC)c(OC)c2)C1C(=O)OC)OCO3 (stereo unspecified) | – | > 100 | – | > 100 | – | – | – | > 100 µM | – | > 100 µM | – | > 100 | – | > 100 | – | > 100 | – | > 100 µM | – | –
16 | O=C(c1cc(O)ccc1O)c1ccccc1C(Cl)(Cl)Cl | – | > 100 | – | > 100 | – | – | – | > 100 µM | – | > 100 µM | – | > 100 | – | > 100 | – | > 100 | – | > 100 µM | – | –
17 | C/C1=C\[C@H](C)C[C@H](C)OC(=O)C[C@H](c2ccc(O)cc2)NC(=O)[C@@H](Cc2c(Br)[nH]c3ccccc23)N(C)C(=O)[C@H](C)NC(=O)[C@@H](C)C1 | 12.6 | 23.6 | 261 | > 20.3 | – | – | 26.8 | 0.661 µM and 0.0703 µM | 34.9 | 0.699 µM and 0.18 µM | – | 39.8 | 430 | 2.27 | 34.7 | > 100 | 70.3 | 0.137 µM and 0.5 µM | 70.6 | 2.02
